Test results from publication PMC12040169 (PLOS Biology, 2025).

Test: in vitro
Conditions: human, hela cells, % viability

## O=C(Oc1cccc(-c2cnc3ccccc3n2)c1)c1cccc(S(=O)(=O)N2CCOCC2)c1 [CBK262096]
  viability at 28.5 h, 10 µM: 89.3%

## CC(C)(C)OC(=O)N1CCC(COc2ccc(-c3ccc(S(C)(=O)=O)cc3)nc2)CC1 [CBK167839]
  viability at 28.5 h, 10 µM: 108%

## OC(COCc1ccco1)CN1CCc2sccc2C1C1CC1 (stereo not drawn) [CBK305167]
  viability at 28.5 h, 10 µM: 119%

## CCOC(=O)CC(=O)CSc1nc(C)cc(-c2cccnc2)c1C#N [CBK267460]
  viability at 28.5 h, 10 µM: 94%

## COc1csc(C(=O)Nc2ncn(CC(=O)N3CCCCCC3)n2)c1 [CBK304463]
  viability at 28.5 h, 10 µM: 84.6%

## Cc1ncc(-c2ccc3ccccc3c2)s1 [CBK019439B]
  viability at 28.5 h, 10 µM: 91.5%

## O=C(O)c1cc(S(=O)(=O)NCc2ccccc2)ccc1Br [CBK261768]
  viability at 28.5 h, 10 µM: 96.9%

## O=C(O)c1ccc(/C=N/N2CCN(Cc3ccc(Cl)cc3)CC2)cc1 [CBK263561]
  viability at 28.5 h, 10 µM: 90.5%

## O=C(O)c1cccc2c1C(=O)N(Cc1ccncc1)C2 [CBK291146]
  viability at 28.5 h, 10 µM: 80.6%

## Cc1ccccc1CSCC(=O)NCCN1CCOCC1 [CBK269207]
  viability at 28.5 h, 10 µM: 103%

## CC(Cc1c[nH]c2ccccc12)NC(=O)CN (stereo not drawn) [CBK218213C]
  viability at 28.5 h, 10 µM: 100%

## CC(=O)c1sccc1NS(=O)(=O)c1ccc2ccccc2c1 [CBK200042]
  viability at 28.5 h, 10 µM: 89.5%

## O=C1CC(c2ccccc2)n2nc(C(F)(F)F)nc2N1 (stereo not drawn) [CBK288063]
  viability at 28.5 h, 10 µM: 114%

## O=C(Cc1csc(-c2ccc(Cl)cc2)n1)NCC1CCCN1 (stereo not drawn) [CBK160982]
  viability at 28.5 h, 10 µM: 106%

## CS(=O)(=O)N1CCc2cc(-c3csc(N)n3)ccc21 [CBK304596]
  viability at 28.5 h, 10 µM: 102%

## N#Cc1ccc(CNC(=O)c2ccc3nc[nH]c3c2)cc1 [CBK153332]
  viability at 28.5 h, 10 µM: 95.1%

## COc1cc(/C=C2/C(=O)NC(=O)N(c3ccc(C)c(Cl)c3)C2=O)ccc1OC(C)C [CBK265156]
Bulk resorufin, single well
  viability at 28.5 h, 10 µM: 118%

## O=C(Nc1ccc(NC(=O)c2cc(O)nc3ccccc23)cc1)c1ccccc1 [CBK269722]
  viability at 28.5 h, 10 µM: 106%

## Cc1cccc(N2CCN(C(=O)C3CCN(Cc4cccc(OCc5ccccc5)c4)CC3)CC2)c1C [CBK264328G]
  viability at 28.5 h, 10 µM: 94.3%

## COc1ccc(CN2CC[C@H]3[C@@H](C2)[C@H](c2ccsc2)CN3C(=O)c2ccccc2)cc1 [CBK285614]
  viability at 28.5 h, 10 µM: 97.6%

## COc1ccc([C@@]23CC[C@@H](NC(=O)Nc4ccc(F)c(F)c4)C[C@@H]2N(C)CC3)cc1O [CBK051630]
  viability at 28.5 h, 10 µM: 88.3%

## Cc1cc(C)n2nc(C(=O)N3CCCC34CC=CC4)cc2n1 [CBK282815]
  viability at 28.5 h, 10 µM: 88.7%

## O=C(Nc1cccc(-c2nnn[nH]2)c1)Nc1ccc(Cl)c(Cl)c1 [CBK155454]
  viability at 28.5 h, 10 µM: 96.3%

## CCCc1[nH]nc(O)c1Cc1cc(F)ccc1Br [CBK075031]
  viability at 28.5 h, 10 µM: 94.6%

## FC(F)(F)c1ccnc(OCCNc2ccccc2)c1 [CBK115824]
  viability at 28.5 h, 10 µM: 90.5%

## Cc1cc(CNC(=O)Nc2ccc(F)c(-n3nnnc3C)c2)n(C)n1 [CBK305525]
  viability at 28.5 h, 10 µM: 88.4%

## COCCOC(=O)N1CCC(C(=O)NC(c2ccc(Cl)cc2)c2cccs2)CC1 (stereo not drawn) [CBK059702]
  viability at 28.5 h, 10 µM: 104%

## Cc1nn(C)c(C)c1NC(=O)CSc1nnc(-c2cccc(Br)c2)n1-c1ccccc1 [CBK267430]
  viability at 28.5 h, 10 µM: 103%

## CC(=O)Nc1ccc(OCC(O)Cn2c(CO)nc3ccccc32)cc1 (stereo not drawn) [CBK304549]
  viability at 28.5 h, 10 µM: 81.3%

## O=C(c1cscn1)N1CCCc2ccccc21 [CBK200348]
  viability at 28.5 h, 10 µM: 102%

## Cc1ccc(NC(=O)Cn2cnc3c2c(=O)n(C)c(=O)n3C)c(C)c1 [CBK133276]
  viability at 28.5 h, 10 µM: 90.6%

## CCOC(=O)c1cc2c3ccccc3n(CC)c2nc1N [CBK100822]
  viability at 28.5 h, 10 µM: 94%

## COc1ccc2c(c1)CC(=O)NC21CCN(C(=O)N[C@@H](C)c2ccccc2)CC1 [CBK047325]
  viability at 28.5 h, 10 µM: 92.4%

## Cc1ccc(N2C(=O)CC(Sc3ncccc3C(=O)O)C2=O)c(C)c1 (stereo not drawn) [CBK269377]
  viability at 28.5 h, 10 µM: 91.9%

## CN(C)c1ccc([N+](=O)[O-])cc1/C=N/NC(=O)CCc1ccccc1O [CBK263257]
  viability at 28.5 h, 10 µM: 86.1%

## CN1CCCN(c2nccnc2-c2ccccc2CO)CC1 [CBK038014]
  viability at 28.5 h, 10 µM: 106%

## CCC1c2cccn2CCN1Cc1cncn1CC (stereo not drawn) [CBK283012]
  viability at 28.5 h, 10 µM: 85.8%

## CCC(=O)N1CCC(C#N)(c2ccccc2)CC1 [CBK091400]
Bulk resorufin, single well
  viability at 28.5 h, 10 µM: 87%

## Cc1ccc(/C=N/n2c(S)nnc2COc2ccccc2)o1 [CBK265244]
  viability at 28.5 h, 10 µM: 110%

## COc1cc(C#N)ccc1OCc1ccccc1 [CBK002577]
  viability at 28.5 h, 10 µM: 62%

## CCOC(=O)c1cccc(NC(=O)CSc2nc3cccnc3[nH]2)c1 [CBK269354]
  viability at 28.5 h, 10 µM: 95.1%

## Cn1c(=O)c2ncn(CC(=O)Nc3cccc(C(=O)O)c3)c2n(C)c1=O [CBK266838]
  viability at 28.5 h, 10 µM: 98.4%

## O=C(CN1CCn2ccnc2C1)N(Cc1ccccc1F)C1CC1 [CBK303995]
  viability at 28.5 h, 10 µM: 89.6%

## CN(C)c1ccc(-c2cc(N3CCN(S(=O)(=O)c4ccc(Cl)cc4)CC3)ncn2)cc1 [CBK091158]
  viability at 28.5 h, 10 µM: 93.5%

## Nc1c(-c2ccsc2)cnc2ncccc12 [CBK083707]
  viability at 28.5 h, 10 µM: 108%

## CC(C)(O)C#Cc1ccccc1C(=O)NC(Cc1c[nH]c2ccccc12)C(=O)O (stereo not drawn) [CBK267701]
  viability at 28.5 h, 10 µM: 80.4%

## O=C(Nc1ccccc1F)N1CCC2(CC1)OCc1cc(-c3ccco3)ccc1O2 [CBK060597]
Bulk resorufin, single well
  viability at 28.5 h, 10 µM: 92%

## O=C(NCCc1ccccn1)N1CCCN(Cc2cccs2)CC1 [CBK305283]
  viability at 28.5 h, 10 µM: 80.5%

## COC(=O)Nc1ccccc1N1CCN(CCCCN2CCN(c3ccccc3)C2=O)CC1 [CBK024372C]
  viability at 28.5 h, 10 µM: 91.8%

## CCC(Cn1ccnc1)NS(=O)(=O)c1cc(-n2cccn2)ccc1OC (stereo not drawn) [CBK307483]
  viability at 28.5 h, 10 µM: 87.8%

## O=C(Cn1cccn1)NC(Cc1ccsc1)c1ccccn1 (stereo not drawn) [CBK285284]
  viability at 28.5 h, 10 µM: 92.8%

## FC(F)(F)c1[nH]c2ncccc2c1CN1CCSCC1 [CBK283257]
  viability at 28.5 h, 10 µM: 87.7%

## Cc1cc(Br)ccc1C(=O)Nc1ccc2cc[nH]c2c1 [CBK160046]
  viability at 28.5 h, 10 µM: 84.1%

## O=C(Cn1c(=O)cc(O)c2ccccc21)Nc1cccc(F)c1 [CBK291242]
  viability at 28.5 h, 10 µM: 98.1%

## CC(C)c1nc(CCNC(=O)C2(Cn3ccnc3)CC2)no1 [CBK306828]
  viability at 28.5 h, 10 µM: 86.2%

## COc1ccc(-c2noc([C@@H]3C[C@@H](O)CN3Cc3cccc(C#N)c3)n2)cc1 [CBK288843]
  viability at 28.5 h, 10 µM: 92.4%

## O=C(N[C@H]1CCN2C(=O)c3cc(-c4ccsc4)ccc3NC(=O)[C@H]12)c1cccc(F)c1 [CBK289339]
  viability at 28.5 h, 10 µM: 92.6%

## O=C(O)C1C2C=CC(O2)C1C(=O)NCCCc1ccccc1 (stereo not drawn) [CBK286982]
  viability at 28.5 h, 10 µM: 93.3%

## O=C(CN1CCN(c2ccc([N+](=O)[O-])cn2)CC1)Nc1ccc2c(c1)OCO2 [CBK074679]
  viability at 28.5 h, 10 µM: 115%

## COC(=O)c1ccccc1NC(=O)CNC(=O)c1ccccc1Cl [CBK269113]
  viability at 28.5 h, 10 µM: 88.8%

## O=C(NCc1ccncc1)C1CCCN(c2nc3c(-c4ccccc4)csc3c(=O)[nH]2)C1 (stereo not drawn) [CBK215493]
  viability at 28.5 h, 10 µM: 107%

## CCCc1c(C)nc2c(OC)cccc2c1SCCC(=O)O [CBK263890]
  viability at 28.5 h, 10 µM: 122%

## O=C(NCc1cccs1)c1ccc2[nH]ccc2c1 [CBK149060]
  viability at 28.5 h, 10 µM: 83.3%

## Cn1cc(C2CCCCCN2C(=O)c2ccccc2F)cn1 (stereo not drawn) [CBK285119]
  viability at 28.5 h, 10 µM: 107%

## Cc1ccc([N+](=O)[O-])cc1NC(=O)C1CCCN1S(=O)(=O)c1ccc(Cl)cc1 (stereo not drawn) [CBK033769]
  viability at 28.5 h, 10 µM: 95.7%

## Nc1ccccc1Sc1ncccc1C(F)(F)F [CBK093758]
  viability at 28.5 h, 10 µM: 86.2%

## Cc1nn(CCC#N)c(C)c1[C@@H]1C=C[C@@H](NC(=O)NC(C)C)C1 [CBK289172]
  viability at 28.5 h, 10 µM: 89.2%

## Cc1ccc(C(=O)O)cc1S(=O)(=O)N(CCO)CCO [CBK267335]
  viability at 28.5 h, 10 µM: 102%

## O=C(c1ccccc1)N1C[C@@H](c2ccsc2)[C@@H]2CN(Cc3ccccc3Cl)CC[C@@H]21 [CBK285613]
  viability at 28.5 h, 10 µM: 101%

## CC(C)(C)c1ccc(N(C2CCNCC2)S(=O)(=O)c2cccc(C(F)(F)F)c2)cc1 [CBK165056T]
  viability at 28.5 h, 10 µM: 114%

## Cc1cc(C)cc(CNC(=O)N(CCCO)Cc2ccncc2)c1 [CBK304335]
  viability at 28.5 h, 10 µM: 93.7%

## Cc1cc(COc2ccnc(N3CCCN(CC(N)=O)CC3)n2)no1 [CBK084036]
  viability at 28.5 h, 10 µM: 85.9%

## CC(C)NC(=O)N1CCc2sccc2C1c1ccc(Cl)cc1 (stereo not drawn) [CBK018247]
  viability at 28.5 h, 10 µM: 108%

## CCCCSc1nnc2c(n1)OC(/C=C/c1ccc([N+](=O)[O-])o1)Nc1ccccc1-2 (stereo not drawn) [CBK262565]
  viability at 28.5 h, 10 µM: 101%

## CCCn1cc(NC(=O)C2(c3ccccc3)CCOCC2)ccc1=O [CBK304905]
  viability at 28.5 h, 10 µM: 90.1%

## COCc1cc(=O)[nH]c(N2CCN(Cc3ccccc3)CC2)n1 [CBK270253]
  viability at 28.5 h, 10 µM: 88.4%

## O=C(C1CCCCC1)N1CCC(n2nc(C3CC3)ccc2=O)CC1 [CBK284240]
  viability at 28.5 h, 10 µM: 90.7%

## NC(=O)C1CCN(C(=S)NC2CC3C=CC2C3)CC1 (stereo not drawn) [CBK085970]
  viability at 28.5 h, 10 µM: 97.4%

## Cn1ncc2c1CCCC2NC(=O)N(CCO)Cc1ccccc1 (stereo not drawn) [CBK306293]
  viability at 28.5 h, 10 µM: 86.1%

## O=C(O)C(Cc1ccccc1)N1C(=O)c2ccccc2C1=O (stereo not drawn) [CBK260904]
  viability at 28.5 h, 10 µM: 97.6%

## CCOC(=O)c1ccoc1C[N+](C)(CC)CC [CBK007022I]
  viability at 28.5 h, 10 µM: 83.7%

## CC(=O)Nc1cccc(-n2nnnc2SCCCc2nc3ccccc3o2)c1 [CBK298317]
  viability at 28.5 h, 10 µM: 85.5%

## CCOC(=O)c1c(NC(=O)CN2CCCCC2)sc2c1CCCC2O (stereo not drawn) [CBK261644]
  viability at 28.5 h, 10 µM: 90.5%

## Oc1cc(C(F)(F)F)nc(NCc2ccc3ccccc3c2)n1 [CBK003459]
  viability at 28.5 h, 10 µM: 92.2%

## CCOC(=O)c1cc(NC(=O)CSc2nc3ccccc3[nH]2)ccc1Cl [CBK266557]
  viability at 28.5 h, 10 µM: 99.8%

## COc1ncc(-c2nccnc2NCc2cccc([N+](=O)[O-])c2)c(OC)n1 [CBK036680]
  viability at 28.5 h, 10 µM: 97.7%

## O=C(O)Cc1ccc(OCC(=O)NCCCSc2ccccc2)cc1 [CBK296630]
  viability at 28.5 h, 10 µM: 91.9%

## COc1ccccc1CNC(=O)c1cnc2scc(C)n2c1=O [CBK287293]
  viability at 28.5 h, 10 µM: 102%

## O=C1NC2(CCCN(C(=O)c3ccco3)C2)Oc2ccccc21 (stereo not drawn) [CBK284800]
  viability at 28.5 h, 10 µM: 99.8%

## Cc1nnc(SCCN2CCOC2=O)n1CCc1cccs1 [CBK304029]
  viability at 28.5 h, 10 µM: 93.7%
